Tests used:
[1] = biological target: CENP-E (Homo sapiens, UniProt Q02224); experiment: Kinesin panel, basal and MT-stimulated ATPase, CENP-E; assay type: biochemical; settings: data not shown
[2] = biological target: T1, Kif5a (Homo sapiens, UniProt Q12840); experiment: Kinesin panel, basal and MT-stimulated ATPase, Kif5a; assay type: biochemical; settings: data not shown
T1 sequence (Q12840 1-1032): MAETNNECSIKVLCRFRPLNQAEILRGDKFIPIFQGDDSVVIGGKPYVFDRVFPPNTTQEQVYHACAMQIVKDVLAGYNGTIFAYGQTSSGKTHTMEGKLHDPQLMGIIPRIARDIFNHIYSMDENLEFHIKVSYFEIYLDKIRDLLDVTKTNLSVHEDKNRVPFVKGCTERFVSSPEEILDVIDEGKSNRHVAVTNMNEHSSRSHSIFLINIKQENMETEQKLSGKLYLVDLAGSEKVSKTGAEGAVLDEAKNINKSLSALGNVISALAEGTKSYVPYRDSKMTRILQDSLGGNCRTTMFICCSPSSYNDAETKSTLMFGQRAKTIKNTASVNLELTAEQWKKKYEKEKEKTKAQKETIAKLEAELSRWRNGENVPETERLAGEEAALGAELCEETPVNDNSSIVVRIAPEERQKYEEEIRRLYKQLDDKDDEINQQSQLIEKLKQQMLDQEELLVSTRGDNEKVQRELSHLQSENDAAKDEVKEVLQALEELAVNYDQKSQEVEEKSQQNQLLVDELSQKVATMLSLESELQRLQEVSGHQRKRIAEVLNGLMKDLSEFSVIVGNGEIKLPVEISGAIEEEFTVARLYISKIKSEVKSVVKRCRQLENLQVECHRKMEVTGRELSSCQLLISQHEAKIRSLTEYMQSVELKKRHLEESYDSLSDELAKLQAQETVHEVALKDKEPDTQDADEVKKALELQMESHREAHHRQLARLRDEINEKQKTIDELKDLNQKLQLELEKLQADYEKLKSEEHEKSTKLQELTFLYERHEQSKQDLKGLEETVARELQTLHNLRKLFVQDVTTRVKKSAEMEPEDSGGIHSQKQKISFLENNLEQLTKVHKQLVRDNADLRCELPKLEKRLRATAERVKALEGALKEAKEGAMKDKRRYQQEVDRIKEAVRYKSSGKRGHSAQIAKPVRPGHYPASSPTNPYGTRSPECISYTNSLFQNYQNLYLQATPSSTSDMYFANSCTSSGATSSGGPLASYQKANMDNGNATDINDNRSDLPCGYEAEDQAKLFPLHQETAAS

[3] = biological target: MPP1 (Homo sapiens, UniProt Q96Q89); experiment: Kinesin panel, basal and MT-stimulated ATPase, MPP1; assay type: biochemical; settings: data not shown
Chain of MPP1 (Q96Q89 whole entry): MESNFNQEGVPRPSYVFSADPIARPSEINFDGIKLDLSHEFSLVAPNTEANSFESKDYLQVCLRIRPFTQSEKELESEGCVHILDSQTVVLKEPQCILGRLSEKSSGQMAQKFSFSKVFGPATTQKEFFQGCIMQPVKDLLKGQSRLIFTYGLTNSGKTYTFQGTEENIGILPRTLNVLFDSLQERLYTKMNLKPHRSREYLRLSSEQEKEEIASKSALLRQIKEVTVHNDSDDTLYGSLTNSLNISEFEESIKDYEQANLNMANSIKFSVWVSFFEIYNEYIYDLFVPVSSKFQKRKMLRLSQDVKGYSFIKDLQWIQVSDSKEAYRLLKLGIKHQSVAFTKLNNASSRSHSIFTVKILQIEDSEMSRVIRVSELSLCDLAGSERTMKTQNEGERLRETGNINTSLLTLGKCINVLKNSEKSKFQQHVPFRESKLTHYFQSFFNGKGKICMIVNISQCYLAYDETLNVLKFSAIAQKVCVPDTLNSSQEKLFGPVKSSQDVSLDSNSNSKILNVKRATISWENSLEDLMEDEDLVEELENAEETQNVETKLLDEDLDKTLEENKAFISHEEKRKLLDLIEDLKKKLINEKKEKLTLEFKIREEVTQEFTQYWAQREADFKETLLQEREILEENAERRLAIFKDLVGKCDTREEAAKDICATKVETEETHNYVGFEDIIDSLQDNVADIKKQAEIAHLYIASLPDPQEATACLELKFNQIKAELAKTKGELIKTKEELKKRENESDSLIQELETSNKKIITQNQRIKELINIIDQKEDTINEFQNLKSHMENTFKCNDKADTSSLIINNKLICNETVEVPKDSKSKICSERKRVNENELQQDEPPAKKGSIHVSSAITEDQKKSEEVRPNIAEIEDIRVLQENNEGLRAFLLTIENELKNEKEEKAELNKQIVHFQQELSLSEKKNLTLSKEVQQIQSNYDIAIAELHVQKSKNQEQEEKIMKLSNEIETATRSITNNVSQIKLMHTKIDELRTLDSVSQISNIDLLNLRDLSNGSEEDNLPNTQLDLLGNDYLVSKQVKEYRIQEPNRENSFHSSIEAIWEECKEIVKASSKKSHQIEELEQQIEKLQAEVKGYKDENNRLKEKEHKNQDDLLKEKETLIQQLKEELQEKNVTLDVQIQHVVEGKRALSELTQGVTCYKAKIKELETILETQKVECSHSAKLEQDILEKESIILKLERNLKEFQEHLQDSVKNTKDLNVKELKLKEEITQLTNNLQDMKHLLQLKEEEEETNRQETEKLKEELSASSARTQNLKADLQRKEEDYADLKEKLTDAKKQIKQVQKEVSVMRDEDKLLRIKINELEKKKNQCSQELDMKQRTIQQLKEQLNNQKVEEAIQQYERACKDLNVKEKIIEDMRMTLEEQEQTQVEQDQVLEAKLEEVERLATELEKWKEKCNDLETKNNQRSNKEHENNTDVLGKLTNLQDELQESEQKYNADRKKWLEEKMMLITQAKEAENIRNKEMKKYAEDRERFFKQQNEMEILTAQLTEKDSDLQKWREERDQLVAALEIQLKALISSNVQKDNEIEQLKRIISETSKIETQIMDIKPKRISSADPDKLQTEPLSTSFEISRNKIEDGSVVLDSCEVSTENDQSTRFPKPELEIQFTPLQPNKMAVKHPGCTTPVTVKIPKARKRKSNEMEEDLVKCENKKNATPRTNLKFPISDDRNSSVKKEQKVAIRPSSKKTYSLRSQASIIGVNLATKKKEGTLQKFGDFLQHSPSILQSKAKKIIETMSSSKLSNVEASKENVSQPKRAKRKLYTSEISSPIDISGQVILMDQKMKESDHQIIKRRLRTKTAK

[4] = biological target: T2, Kif7 (Homo sapiens, UniProt Q2M1P5); experiment: Kinesin panel, basal and MT-stimulated ATPase, Kif7; assay type: biochemical; settings: data not shown
T2 sequence (Q2M1P5 1-1343): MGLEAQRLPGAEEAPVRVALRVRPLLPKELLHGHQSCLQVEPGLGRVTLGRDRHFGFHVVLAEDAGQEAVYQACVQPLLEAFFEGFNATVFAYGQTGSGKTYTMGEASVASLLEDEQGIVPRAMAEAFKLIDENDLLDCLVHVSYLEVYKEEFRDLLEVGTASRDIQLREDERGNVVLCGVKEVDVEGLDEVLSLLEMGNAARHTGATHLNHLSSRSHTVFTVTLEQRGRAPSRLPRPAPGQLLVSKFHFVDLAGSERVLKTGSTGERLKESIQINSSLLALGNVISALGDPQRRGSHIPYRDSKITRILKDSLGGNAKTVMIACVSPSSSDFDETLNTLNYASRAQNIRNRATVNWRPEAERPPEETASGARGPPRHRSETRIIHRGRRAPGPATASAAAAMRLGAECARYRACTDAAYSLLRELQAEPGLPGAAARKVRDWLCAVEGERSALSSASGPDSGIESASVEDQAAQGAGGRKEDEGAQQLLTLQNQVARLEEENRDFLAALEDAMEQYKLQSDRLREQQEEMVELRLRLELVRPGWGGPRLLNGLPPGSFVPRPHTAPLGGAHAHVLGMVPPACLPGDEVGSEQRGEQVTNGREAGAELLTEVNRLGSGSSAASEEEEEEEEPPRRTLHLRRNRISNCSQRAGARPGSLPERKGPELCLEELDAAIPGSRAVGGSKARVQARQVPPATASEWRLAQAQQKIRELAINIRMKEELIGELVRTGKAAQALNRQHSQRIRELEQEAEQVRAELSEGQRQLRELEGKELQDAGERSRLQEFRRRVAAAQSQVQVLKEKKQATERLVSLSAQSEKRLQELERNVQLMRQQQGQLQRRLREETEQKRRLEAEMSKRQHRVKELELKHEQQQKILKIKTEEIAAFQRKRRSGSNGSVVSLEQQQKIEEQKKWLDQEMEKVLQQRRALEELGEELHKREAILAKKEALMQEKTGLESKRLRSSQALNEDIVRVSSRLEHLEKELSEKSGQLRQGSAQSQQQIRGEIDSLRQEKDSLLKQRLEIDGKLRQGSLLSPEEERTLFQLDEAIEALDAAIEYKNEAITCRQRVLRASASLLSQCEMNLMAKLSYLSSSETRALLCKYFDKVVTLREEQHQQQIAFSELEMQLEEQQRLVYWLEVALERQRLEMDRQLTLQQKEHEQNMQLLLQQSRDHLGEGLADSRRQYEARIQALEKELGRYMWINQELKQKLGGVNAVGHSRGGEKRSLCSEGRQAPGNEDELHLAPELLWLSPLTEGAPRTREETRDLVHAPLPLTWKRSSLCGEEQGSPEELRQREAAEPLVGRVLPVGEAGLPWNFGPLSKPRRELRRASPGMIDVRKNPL

[5] = test system: K562 cells; experiment: cells; assay type: cell-based; settings: Homo sapiens, K562, 72 h, read-out: K562 cells, GI50
[6] = biological target: T3, MKLP-2 (Homo sapiens, UniProt O95235); experiment: Kinesin panel, basal and MT-stimulated ATPase, MKLP-2; assay type: biochemical; settings: data not shown
T3 sequence (O95235 1-890): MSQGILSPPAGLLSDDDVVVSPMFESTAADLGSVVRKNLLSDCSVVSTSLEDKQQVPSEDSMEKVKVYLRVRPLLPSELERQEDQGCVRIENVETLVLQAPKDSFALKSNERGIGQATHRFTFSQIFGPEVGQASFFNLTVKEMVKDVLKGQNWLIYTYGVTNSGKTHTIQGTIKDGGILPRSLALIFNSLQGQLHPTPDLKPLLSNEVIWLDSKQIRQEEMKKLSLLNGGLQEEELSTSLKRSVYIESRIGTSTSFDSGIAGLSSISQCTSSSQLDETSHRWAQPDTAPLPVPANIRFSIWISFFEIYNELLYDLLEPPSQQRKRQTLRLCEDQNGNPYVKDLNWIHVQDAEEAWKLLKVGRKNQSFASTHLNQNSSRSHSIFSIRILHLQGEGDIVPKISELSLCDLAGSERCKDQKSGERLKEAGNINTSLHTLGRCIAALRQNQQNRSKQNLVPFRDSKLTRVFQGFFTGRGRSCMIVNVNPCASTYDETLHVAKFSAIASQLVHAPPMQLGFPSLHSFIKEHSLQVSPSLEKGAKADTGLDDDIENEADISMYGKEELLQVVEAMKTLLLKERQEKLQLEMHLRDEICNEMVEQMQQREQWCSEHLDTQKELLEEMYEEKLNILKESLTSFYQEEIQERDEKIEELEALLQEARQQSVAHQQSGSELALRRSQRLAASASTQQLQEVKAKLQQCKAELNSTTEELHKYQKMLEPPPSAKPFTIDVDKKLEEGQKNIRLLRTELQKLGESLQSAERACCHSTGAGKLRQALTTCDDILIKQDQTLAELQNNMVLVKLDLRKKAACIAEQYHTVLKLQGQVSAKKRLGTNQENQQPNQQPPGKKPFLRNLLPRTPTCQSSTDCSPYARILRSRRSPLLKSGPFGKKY

[7] = Mouse microsomal stability; settings: mouse microsomes, 3 µM
[8] = Human plasma protein binding, equilibrium dialysis; settings: 50%
[9] = Human microsomal stability; settings: human microsomes, 3 µM

Chain of CENP-E (Q02224 whole entry): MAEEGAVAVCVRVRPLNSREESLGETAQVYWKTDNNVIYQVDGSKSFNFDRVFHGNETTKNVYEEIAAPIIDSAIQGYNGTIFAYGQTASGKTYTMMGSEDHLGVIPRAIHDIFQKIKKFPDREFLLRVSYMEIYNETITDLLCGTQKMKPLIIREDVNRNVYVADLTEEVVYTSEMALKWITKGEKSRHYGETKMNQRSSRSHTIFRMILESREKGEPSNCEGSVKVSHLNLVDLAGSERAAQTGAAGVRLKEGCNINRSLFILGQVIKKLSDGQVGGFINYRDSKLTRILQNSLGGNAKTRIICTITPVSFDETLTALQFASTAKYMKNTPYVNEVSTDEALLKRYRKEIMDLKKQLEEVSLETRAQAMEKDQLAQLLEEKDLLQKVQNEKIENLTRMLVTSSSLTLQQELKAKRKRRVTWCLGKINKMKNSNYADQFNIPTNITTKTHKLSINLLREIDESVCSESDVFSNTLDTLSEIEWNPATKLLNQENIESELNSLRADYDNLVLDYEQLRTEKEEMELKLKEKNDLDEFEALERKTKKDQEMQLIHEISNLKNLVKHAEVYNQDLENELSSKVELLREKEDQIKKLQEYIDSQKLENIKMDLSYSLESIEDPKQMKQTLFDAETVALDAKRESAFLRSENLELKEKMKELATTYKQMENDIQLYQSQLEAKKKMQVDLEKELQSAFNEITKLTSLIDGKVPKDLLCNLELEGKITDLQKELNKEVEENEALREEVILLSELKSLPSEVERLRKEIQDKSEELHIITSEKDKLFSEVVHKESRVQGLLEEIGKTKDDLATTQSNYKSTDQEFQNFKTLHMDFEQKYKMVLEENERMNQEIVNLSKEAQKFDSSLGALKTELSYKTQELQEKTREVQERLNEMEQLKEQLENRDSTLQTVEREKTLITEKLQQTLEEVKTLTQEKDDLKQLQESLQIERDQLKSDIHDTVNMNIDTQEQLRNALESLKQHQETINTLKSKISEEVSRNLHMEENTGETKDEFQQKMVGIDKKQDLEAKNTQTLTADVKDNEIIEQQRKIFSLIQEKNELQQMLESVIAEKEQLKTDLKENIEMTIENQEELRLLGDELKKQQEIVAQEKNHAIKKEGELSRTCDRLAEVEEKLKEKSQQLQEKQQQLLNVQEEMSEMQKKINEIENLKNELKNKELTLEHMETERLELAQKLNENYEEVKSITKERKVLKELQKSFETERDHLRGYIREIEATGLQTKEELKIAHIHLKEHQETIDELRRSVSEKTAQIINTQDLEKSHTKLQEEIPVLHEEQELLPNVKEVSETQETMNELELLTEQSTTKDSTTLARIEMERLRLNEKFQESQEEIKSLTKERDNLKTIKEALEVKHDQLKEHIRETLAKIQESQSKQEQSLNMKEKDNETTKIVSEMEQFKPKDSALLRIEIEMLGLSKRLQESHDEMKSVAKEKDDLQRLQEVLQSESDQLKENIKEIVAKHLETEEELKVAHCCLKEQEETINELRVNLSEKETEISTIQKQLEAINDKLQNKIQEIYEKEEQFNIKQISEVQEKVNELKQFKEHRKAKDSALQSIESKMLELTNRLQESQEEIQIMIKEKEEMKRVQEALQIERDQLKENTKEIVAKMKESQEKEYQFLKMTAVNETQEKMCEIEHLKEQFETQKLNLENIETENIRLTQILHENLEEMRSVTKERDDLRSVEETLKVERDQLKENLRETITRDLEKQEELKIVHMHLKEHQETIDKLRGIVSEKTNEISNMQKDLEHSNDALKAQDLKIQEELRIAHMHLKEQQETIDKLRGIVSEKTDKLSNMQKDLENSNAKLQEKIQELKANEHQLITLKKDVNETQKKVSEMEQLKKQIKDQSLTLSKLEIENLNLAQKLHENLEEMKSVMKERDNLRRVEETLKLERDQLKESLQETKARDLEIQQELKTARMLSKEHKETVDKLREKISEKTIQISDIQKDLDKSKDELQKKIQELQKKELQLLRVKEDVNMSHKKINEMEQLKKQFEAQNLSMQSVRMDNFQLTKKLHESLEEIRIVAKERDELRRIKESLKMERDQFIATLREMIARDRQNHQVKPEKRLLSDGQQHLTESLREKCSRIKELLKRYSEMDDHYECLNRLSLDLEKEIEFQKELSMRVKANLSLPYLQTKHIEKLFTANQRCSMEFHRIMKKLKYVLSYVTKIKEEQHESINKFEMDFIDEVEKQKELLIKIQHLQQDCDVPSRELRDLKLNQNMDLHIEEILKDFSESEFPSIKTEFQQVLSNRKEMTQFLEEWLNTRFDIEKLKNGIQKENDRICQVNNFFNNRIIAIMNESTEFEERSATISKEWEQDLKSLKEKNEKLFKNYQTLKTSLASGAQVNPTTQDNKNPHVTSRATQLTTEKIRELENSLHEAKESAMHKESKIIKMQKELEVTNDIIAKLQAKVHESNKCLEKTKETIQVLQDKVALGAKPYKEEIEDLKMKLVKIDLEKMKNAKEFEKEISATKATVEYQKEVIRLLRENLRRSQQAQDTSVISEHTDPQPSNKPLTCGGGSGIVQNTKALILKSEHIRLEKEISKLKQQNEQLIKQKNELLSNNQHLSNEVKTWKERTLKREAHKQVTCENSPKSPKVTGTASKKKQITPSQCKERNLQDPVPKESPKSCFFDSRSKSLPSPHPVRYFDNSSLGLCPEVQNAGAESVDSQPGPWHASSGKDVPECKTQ

Row | SMILES | inhibition of basal and MT-stimulated ATPase activities, CENP-E [1] | inhibition of basal and MT-stimulated ATPase activities, Kif5a [2] | inhibition of basal and MT-stimulated ATPase activities, MPP1 [3] | inhibition of basal and MT-stimulated ATPase activities, Kif7 [4] | GI50 [5] [µM] | inhibition of basal and MT-stimulated ATPase activities, MKLP-2 [6] | microsomal stability, Clint, mice [7] | recovery at 5 µM [8] [%] | turbidimetric solubility pH 7.4 | microsomal stability, Clint, human [9]
1 | Cc1cccc(C(CCC(N)C(=O)O)(c2ccccc2)c2ccccc2)c1 (racemic) [rac-29, 2-Amino-5-(3-methylphenyl)-5,5-diphenylpentanoic acid] | did not observe any significant inhibition | did not observe any significant inhibition | did not observe any significant inhibition | did not observe any significant inhibition | 0.091 ± 0.009 | did not observe any significant inhibition | – | – | – | –
2 | Cc1cccc(C(CCCN)(c2ccccc2)c2ccccc2)c1 [compound 30, 4-(3-Methylphenyl)-4,4-diphenylbutan-1-amine] | – | – | – | – | – | – | high microsomal clearance | 69.1 | >100, >100, >100 μM | stable

Reference: publication PMC3428805 (Journal of Medicinal Chemistry, 2012)
